Measurements as given in patent publication US6890921B1, “Arylsubstituted piperazines useful in the treatment of benign prostatic hyperplasia” (Ortho-McNeil Pharmaceutical, Inc., priority 1997, dated 2005).
pIC50: −log10 of the molar value.

Tests used:
α1d-AR = biological target: T1, α1d-AR (Homo sapiens, UniProt P25100); assay: Radioligand ([125I]-HEAT) receptor binding assay, COS cell membranes expressing α1d-AR; conditions: [125I]-HEAT 50 pM
T1 construct: expressed in transfected cells; host or cells: COS cells (transient, DEAE-dextran), membranes
T1 sequence (P25100 1-572): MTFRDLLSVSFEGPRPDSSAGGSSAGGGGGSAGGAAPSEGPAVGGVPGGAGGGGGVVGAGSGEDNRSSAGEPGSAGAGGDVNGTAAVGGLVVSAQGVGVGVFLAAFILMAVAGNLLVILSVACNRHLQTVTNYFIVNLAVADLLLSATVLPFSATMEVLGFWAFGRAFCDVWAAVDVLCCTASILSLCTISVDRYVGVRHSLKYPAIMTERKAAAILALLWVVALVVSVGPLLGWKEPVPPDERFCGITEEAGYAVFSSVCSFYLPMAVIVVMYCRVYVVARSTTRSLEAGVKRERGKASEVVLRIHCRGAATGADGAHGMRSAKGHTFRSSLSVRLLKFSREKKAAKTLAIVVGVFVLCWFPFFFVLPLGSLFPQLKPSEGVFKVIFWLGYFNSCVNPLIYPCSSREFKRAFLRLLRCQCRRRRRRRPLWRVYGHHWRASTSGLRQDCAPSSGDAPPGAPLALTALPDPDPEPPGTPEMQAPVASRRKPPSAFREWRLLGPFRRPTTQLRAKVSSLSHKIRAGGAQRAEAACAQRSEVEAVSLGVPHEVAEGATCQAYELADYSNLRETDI
Description: (§1) The DNA sequences of the three cloned human α1-AR subtypes have been published. […] We used published DNA sequence information to design primers for use in RT-PCR amplification of each subtype to obtain cloned cDNAs. Human poly A+ RNA was obtained from commercially available sources and included hippocampus and prostate samples, sources which have been cited in the literature. For the primary screen a radio ligand binding assay was used which employed membrane preparations from cells expressing the individual cloned receptor cDNAs. Radiolabeled ligands with binding activity on all three subtypes (non-selective) are commercially available ([125I]-HEAT, [3H]-prazosin).
(§2) Each α1 receptor subtype was cloned from poly A+ RNA by the standard method of reverse transcription-polymerase chain reaction (RT-PCR). The following sources of polyA+ RNA were used for the cloning of the α1 receptor subtypes: α1a-AR, human hippocampus and prostate, α1b-AR, human hippocampus, α1d-AR, human hippocampus. The resulting cDNAs were cloned into the pcDNA3 mammalian expression vector (Invitrogen Corp., San Diego Calif.). Each DNA was sequenced for verification and to detect any possible mutations introduced during the amplification process. Any deviation in sequence from the published consensus for each receptor subtype was corrected by site-directed mutagenesis.
(§3) The three α1-AR subtypes (a, b, d) were transfected into COS cells using a standard DEAE-dextran procedure with a chloroquine shock. In this procedure, each tissue culture dish (100 mm) was inoculated with 3.5×10^6 cells and transfected with 10 μg of DNA. Approximately 72 hours post-transfection, the cells were harvested and COS membranes were prepared. Transfected COS cells from 25 plates (100 mm) were scraped and suspended in 15 mL of TE buffer (50 mM Tris-HCl, 5 mM EDTA, pH7.4). The suspension was disrupted with a homogenizer. It was then centrifuged at 1000×g for 10 minutes at 4° C. The supernatant was centrifuged at 34,500×g for 20 minutes at 4° C. The pellet was resuspended in 5 mL TNE buffer (50 mM Tris-HCl, 5 mM EDTA, 150 mM NaCl, pH7.4). The resulting membrane preparation was aliquoted and stored at −70° C. The protein concentration was determined following membrane solubilization with TritonX-100.
(§4) The ability of each compound to bind to each of the α1-AR subtypes was assessed in a receptor binding assay. [125I]-HEAT, a non-selective α1-AR ligand, was used as the radiolabeled ligand. Each well of a 96-well plate received: 140 μL TNE, 25 μL [125I]-HEAT diluted in TNE (50,000 cpm; final concentration 50 pM), 10 μL test compound diluted in DMSO (final concentration 1 pM-[…]), […] COS cell membrane preparation expressing one of the three α1-AR subtypes (0.05-0.2 mg membrane protein). The plate was incubated for 1 hour at room temperature and the reaction mixtures were filtered through a Packard GF/C Unifilter filter plate. The filter plate was dried for 1 hour in a vacuum oven. Scintillation fluid ([…]) was added to each well, and the filter plate was counted in a Packard Topcount scintillation counter. Data was analyzed using GraphPad Prism software.
(§5) Tables A & B list the IC50 values expressed in nanomolar concentration for select compounds of the invention in all receptor subtypes.

α1b-AR = biological target: T2, α1b-AR (Homo sapiens, UniProt P35368); assay: Radioligand ([125I]-HEAT) receptor binding assay, COS cell membranes expressing α1b-AR; conditions: [125I]-HEAT 50 pM
T2 construct: expressed in transfected cells; host or cells: COS cells (transient, DEAE-dextran), membranes
T2 sequence (P35368 1-520): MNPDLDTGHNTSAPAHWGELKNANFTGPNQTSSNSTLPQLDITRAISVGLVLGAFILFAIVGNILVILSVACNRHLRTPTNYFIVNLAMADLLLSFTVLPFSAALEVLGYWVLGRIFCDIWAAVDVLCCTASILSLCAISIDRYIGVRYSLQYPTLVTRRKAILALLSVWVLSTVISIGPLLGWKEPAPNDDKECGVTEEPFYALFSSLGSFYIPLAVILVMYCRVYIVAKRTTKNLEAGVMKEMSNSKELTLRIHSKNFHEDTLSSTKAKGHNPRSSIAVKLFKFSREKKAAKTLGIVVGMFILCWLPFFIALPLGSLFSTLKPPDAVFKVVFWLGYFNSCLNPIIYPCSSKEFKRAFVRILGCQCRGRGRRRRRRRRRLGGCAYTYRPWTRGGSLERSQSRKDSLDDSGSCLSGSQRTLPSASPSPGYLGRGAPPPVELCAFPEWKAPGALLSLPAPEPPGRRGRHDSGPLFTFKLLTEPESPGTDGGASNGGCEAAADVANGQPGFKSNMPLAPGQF
Description: as §1, §2, §3, §4, §5

α1a-AR = biological target: T3, α1a-AR (Homo sapiens, UniProt P35348); assay: Radioligand ([125I]-HEAT) receptor binding assay, COS cell membranes expressing α1a-AR; conditions: [125I]-HEAT 50 pM
T3 construct: expressed in transfected cells; host or cells: COS cells (transient, DEAE-dextran), membranes
T3 sequence (P35348 1-466): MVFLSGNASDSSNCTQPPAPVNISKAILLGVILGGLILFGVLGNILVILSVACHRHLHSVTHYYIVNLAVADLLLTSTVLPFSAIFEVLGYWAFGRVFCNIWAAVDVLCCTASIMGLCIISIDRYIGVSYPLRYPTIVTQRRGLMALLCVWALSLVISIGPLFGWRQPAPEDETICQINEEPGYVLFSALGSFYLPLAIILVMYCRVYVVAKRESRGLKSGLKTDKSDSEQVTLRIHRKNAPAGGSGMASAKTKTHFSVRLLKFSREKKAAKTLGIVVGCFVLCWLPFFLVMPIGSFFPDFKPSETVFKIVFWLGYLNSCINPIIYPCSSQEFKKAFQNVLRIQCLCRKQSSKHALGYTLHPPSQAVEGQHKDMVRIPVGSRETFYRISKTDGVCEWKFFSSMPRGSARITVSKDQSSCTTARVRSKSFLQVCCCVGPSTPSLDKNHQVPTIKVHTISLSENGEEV
Description: as §1, §2, §3, §4, §5

[1] = system: rat prostatic tissue (α1a-AR); assay: Norepinephrine-induced contractile response of rat prostatic tissue; conditions: rat prostatic strips, 32° C., read-out: IC50 for inhibition of contractile response in prostate tissue
Description: (§6) The contractile responses of rat prostatic tissue and rat aorta tissues were examined in the presence and absence of antagonist compounds. As an indication of the selectivity of antagonism, test compound effects on vascular smooth muscle contractility (α1b-AR and α1d-AR) were compared to the effects on prostatic smooth muscle (α1a-AR). Strips of prostatic tissue and aortic rings were obtained from Long Evans derived male rats weighing 275 grams and sacrificed by cervical dislocation. The prostate tissue was placed under 1 gram tension in a 10 ml bath containing phosphate buffered saline pH 7.4 at 32° C. and isometric tension was measured with force transducers. The aortic tissue was placed under 2 grams tension in a 10 ml bath containing phosphate buffered saline pH 7.4 at 37° C. The ability of test compound to reduce the norepinephrine-induced contractile response by 50% (IC50) was determined.

[2] = biological target: T4, HEK 293s cells expressing human α1a-AR (Homo sapiens, UniProt P35348); assay: Antagonism of norepinephrine-induced mobilization of cytosolic calcium (Fluo-3, FLIPR); type: cell-based; conditions: norepinephrine 10 uM, read-out: IC50 for inhibition of the mobilization of cytosolic calcium
T4 construct: expressed in transfected cells
T4 sequence (P35348 1-466): T3 sequence (P35348 1-466)
Description: Binding of an agonist to α1-ARs causes the activation of PLC through G-protein coupled mechanisms (Minneman and Esbenshade, 1994). PLC catalyzes the hydrolysis of phosphatidyl inositol 4,5-bisphosphate (PIP2) generating two second messenger molecules, inositol 1,4,5-triphosphate (IP3) and diacylglycerol (DAG) and ultimately resulting in mobilization of intracellular calcium stores.
Preparation of stable cell lines expressing each receptor subtype: The alpha 1 adrenergic receptor subtypes (a, b, d) in the pcDNA3 vector were transfected into HEK 293s (human embryonic kidney) cells to form stable receptor-expressing cell lines. Transfection was performed using DMRIE-C (GibcoBRL) cationic lipid reagent mixed with 2-3 ug of DNA and reduced serum OPTI-MEM 1 medium (GibcoBRL). Cells in 100 mm tissue culture plates were overlayed with the lipid-DNA complex and incubated at 37° C., 5% CO2 for 5-6 hours. Serum-containing growth medium was then added and cells were incubated for an additional 48 hours. […] Positive cultures were subsequently analyzed by the calcium mobilization assay.
HEK 293s cells expressing human α1a-AR were lifted with trypsin and washed once with HBSS. […] Afterward, the agonist was added and fluorescent signal was monitored for 2-3 minutes using FLIPR (Molecular Devices, USA).

[3] = system: rat aorta tissue (α1b-AR and α1d-AR); assay: Norepinephrine-induced contractile response of rat aorta tissue; conditions: rat aortic rings, 37° C., read-out: IC50 for inhibition of contractile response in aortic tissue
Description: as §6

CC(C)Oc1ccccc1N1CCN(CCN(Cc2ccccc2)C(=O)CN2CCCCC2=O)CC1 [compound 9]
pIC50 (α1d-AR; Table A): 6.46 | pIC50 (α1b-AR; Table A): 5.37 | pIC50 (α1a-AR; Table A): 7.06

C=CCN(CCN1CCN(c2ccccc2OC(C)C)CC1)C(=O)CN1CCCCC1=O [compound 7]
pIC50 (α1d-AR; Table A): 6.43 | pIC50 (α1b-AR; Table A): 3.76 | pIC50 (α1a-AR; Table A): 6.99

CC(C)Oc1ccccc1N1CCN(CCNC(=O)CN2CCCCCC2=O)CC1 [compound 11]
pIC50 (α1d-AR; Table A): 6.30 | pIC50 (α1b-AR; Table A): 5.45 | pIC50 (α1a-AR; Table A): 7.74

CC(C)Oc1ccccc1N1CCN(CCNC(=O)CN2CCCCC2=O)CC1 [Cpd. 5]
pIC50 (α1d-AR; Table A): 6.43 | pIC50 [1]: 5.89 | pIC50 (α1b-AR; Table A): 4.34 | pIC50 [2]: 4.00 | pIC50 [3]: 4.50 | pIC50 (α1a-AR; Table A): 8.06

CC(C)Oc1ccccc1N1CCN(CCN(C)C(=O)CN2CCCCC2=O)CC1 [Cpd. 6]
pIC50 (α1d-AR; Table A): 6.19 | pIC50 (α1b-AR; Table A): 3.12 | pIC50 (α1a-AR; Table A): 7.28

CC(C)Oc1ccccc1N1CCN(CCNC(=O)CN2C(=O)c3ccccc3C2=O)CC1 [compound 13]
pIC50 (α1d-AR; Table B): 7.96 | pIC50 (α1b-AR; Table B): 5.79 | pIC50 (α1a-AR; Table B): 6.98

CCOC(=O)C1CCC(=O)N1CC(=O)NCCN1CCN(c2ccccc2OC(C)C)CC1 (stereo not drawn) [compound 10]
pIC50 (α1d-AR; Table A): 6.59 | pIC50 (α1b-AR; Table A): 4.58 | pIC50 (α1a-AR; Table A): 7.70

COc1ccccc1N1CCN(CCCNC(=O)CN2CCCCC2=O)CC1 [compound 12]
pIC50 (α1d-AR; Table A): 4.52 | pIC50 (α1b-AR; Table A): 3.96 | pIC50 (α1a-AR; Table A): 7.01
